“And” between values parts separate entries of the source, which are not always exact repeats. Identical values can stand only once. Marks after values point to notes of the source that are not given here.
Legend:
Test in all cases: NCI 60 cell line screen
[1] = tested on: CCRF-CEM; format: cell-based, human; details: CCRF-CEM (Leukemia)
[2] = tested on: HL-60 (TB); format: cell-based, human; details: HL-60 (TB) (Leukemia)
[3] = tested on: HOP-62; format: cell-based, human; details: HOP-62 (Non-Small Cell Lung Cancer)
[4] = tested on: SF295; format: cell-based, human; details: SF295 (CNS Cancer)
[5] = tested on: SNB-19; format: cell-based, human; details: SNB-19 (CNS Cancer)
[6] = tested on: SNB-75; format: cell-based, human; details: SNB-75 (CNS Cancer)
[7] = tested on: U251; format: cell-based, human; details: U251 (CNS Cancer)
[8] = tested on: A498; format: cell-based
[9] = tested on: MDA-MB-231/ATCC; format: cell-based, human; details: MDA-MB-231/ATCC (Breast Cancer); one-dose 10 µM

Which “GI% (10^−5 M)” value ([1]; one-dose 10 µM) does the source give for `CCC(=C(c1ccc(O)cc1)c1ccc(OCCN(C)C(=O)/C(=C/c2ccc(OC)c(O)c2)c2cc(OC)c(OC)c(OC)c2)cc1)c1ccc(O)cc1` (mixture of isomers) [Compound 28, (E)-N-(2-{4-[(E/Z)-1,2-Bis-(4-hydroxyphenyl)but-1-enyl]-phenoxy}ethyl)-3-(3-hydroxy-4-methoxyphenyl)-N-methyl-2-(3,4,5-trimethoxyphenyl)acrylamide] here?
The value was 72.48%.

What about the GI50 ([1]; Homo sapiens, five-dose screen) of the same molecule?
Its GI50 is 1770 nM.

And the “GI% (10^−5 M)” value ([2]; one-dose 10 µM)?
The value was 100 ^d,f %.

And the GI50 ([2]; Homo sapiens, five-dose screen)?
Its GI50 is 1400 nM.

What about the “GI% (10^−5 M)” value ([3]; one-dose 10 µM) of the same molecule?
Its value is 81.99%.

What about the GI50 ([3]; Homo sapiens, five-dose screen) of the same molecule?
Its GI50 is 2860 nM.

What about the GI50 ([4]; Homo sapiens, SF-295, five-dose screen) of the same molecule?
The GI50 was 1740 nM.

What about the “GI% (10^−5 M)” value ([4]; one-dose 10 µM) of the same molecule?
The value was 73.4%.

And the GI50 ([5]; Homo sapiens, five-dose screen)?
Its GI50 is 1720 nM.

And the “GI% (10^−5 M)” value ([5]; one-dose 10 µM)?
The value was 81.49%.

And the GI50 ([6]; Homo sapiens, five-dose screen)?
The GI50 was 5960 nM.

And the “GI% (10^−5 M)” value ([6]; one-dose 10 µM)?
Its value is 60.65%.

What about the GI50 ([7]; Homo sapiens, U-251, five-dose screen) of the same molecule?
The GI50 was 1740 nM.

And the “GI% (10^−5 M)” value ([7]; one-dose 10 µM)?
Its value is 93% and 93.37%.

What about the “GI% (10^−5 M)” value ([8]; A498 (Renal Cancer), one-dose 10 µM) of the same molecule?
The value was 2.94%.

What about the CC50 ([8]; Homo sapiens, A498, five-dose screen, read-out: LC50 (the source's name)) of the same molecule?
Its CC50 is 32600 nM.

What about the “GI% (10^−5 M)” value [9] of the same molecule?
The value was 1.61%.

Source: PMC5344255, “Design, Synthesis and Biochemical Evaluation of Novel Selective Estrogen Receptor Ligand Conjugates Incorporating an Endoxifen-Combretastatin Hybrid Scaffold” (Biomedicines, 2016)
